# Experiments:
# [1] = target: T1, hCRTH2 receptor (Homo sapiens, UniProt Q9Y5Y4); experiment: CRTH2 membranes radioligand binding assay ({3H}-PGD2), Example B-1; conditions: {3H}-PGD2 radioligand binding, read-out: CRTH2 binding IC50 (nM) (method B1 above)
# T1 construct: expressed in transfected cells
# T1 sequence (Q9Y5Y4 1-395): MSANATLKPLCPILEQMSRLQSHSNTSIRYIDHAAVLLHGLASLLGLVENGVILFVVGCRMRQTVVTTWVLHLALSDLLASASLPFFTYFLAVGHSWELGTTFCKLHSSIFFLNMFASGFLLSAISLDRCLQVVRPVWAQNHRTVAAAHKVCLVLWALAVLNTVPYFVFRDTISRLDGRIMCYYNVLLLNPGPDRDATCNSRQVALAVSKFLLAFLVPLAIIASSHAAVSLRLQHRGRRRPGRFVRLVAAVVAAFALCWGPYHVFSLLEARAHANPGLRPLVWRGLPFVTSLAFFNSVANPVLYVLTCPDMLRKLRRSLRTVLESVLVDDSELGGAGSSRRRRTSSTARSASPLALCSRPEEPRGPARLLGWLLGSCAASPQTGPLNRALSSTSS
# Protocol: The ability of the compounds of formula I, IC1, IC2 or IP to bind to the CRTH2 receptor may be measured by methods similar to those described in Sawyer N. et al., Br. J. Pharmacol. (2002), 137, 1163-1172 and by the method described below in Example B-1.
# Preparation of the membranes and radioligand binding assays are performed according to known procedures, e.g. Sawyer N. et al. (Br. J. Pharmacol., 2002, 137, 1163-1172). A clonal HEK 293 cell line, expressing high level of recombinant hCRTH2 receptor, is selected for the preparation of membranes. Cells are detached from culture plates in 5 ml buffer A per plate (5 mM Tris, 1 mM MgCl2x6H2O, 0.1 mM PMSF, 0.1 mM phenanthroline) using a police rubber and transferred into centrifugation tubes and frozen at −80° C. After thawing, the cells are centrifuged at 500 g for 5 min and then resuspended in buffer A. Cells are then fragmented by homogenization with a Polytron homogenizer for 30 s. The membrane fragments are centrifuged at 3000 g for 40 min and resuspended in membranes in buffer B (50 mM Tris, 25 mM MgCl2, 250 mM saccharose, pH 7.4) and aliquots are stored frozen.
# Binding assay is performed in a total volume of 250 μl. In each well, 75 μl buffer C (50 mM Tris, 100 mM NaCl, 1 mM EDTA, 0.1% BSA (protease free), 0.01% NaN3, pH 7.4) was mixed with 50 μl {^3H}-PGD2 (at 2.5 nM (220.000 dpm per well) from Amersham, TRK734), 100 μl CRTH2 membranes to give 80 μg per well and 25 μl of test compound in buffer C containing 1% DMSO. For unspecific binding, PGD2 is added to the reaction mixture at 1 μM final concentration. This binding assay mix is incubated at rt for 90 min and then filtered through a GF/C filter plate. The filter is washed three times with ice cold binding buffer. Then, 40 μl per well Microscint-40 (Packard) are added and the bound radioactivity is quantified by means of Topcount (Packard).
# [2] = target: T1, hCRTH2 receptor; experiment: Intracellular calcium mobilization assay (FLIPR), Example B-2; format: cell-based; conditions: HEK-293 cells expressing hCRTH2; 10 nM prostaglandin D2 as agonist; read-out: CRTH2 FLIPR IC50 (nM) (method B2 above)
# Protocol: A functional assay with cells expressing the human CRTH2 receptor may be used to detect changes in the levels of intracellular calcium concentration following compound treatment. After addition of the compound the cells are challenged with PGD2. In a Fluorescent Imaging Plate Reader (FLIPR™, Molecular Devices, Sunnyvale, Calif.) fluorescence emission is recorded during both additions, emission peak values above base level after PGD2 addition were exported, normalized to low controls (no PGD2) and high controls (no active compound). The relative values of the remaining activity were used to determine IC50 values by curve fitting the data to a single site to a four-parameter logistic sigmoid dose response curve of the equation (A+((B−A)/(1+((C/x)^D)))).
# The ability of the compounds to antagonize PGD2 induced change of intracellular calcium levels via CRTH2 activation may be measured by methods known of one skilled in the art or by the method described below in Example B-2.
# Cells (HEK-293), stably expressing the hCRTH2 receptor under the control of the cytomegalovirus promotor from a single insertion of the expression vector pcDNA5 (Invitrogen), are grown to confluency in DMEM (low glucose, Gibco) medium supplemented with 10% fetal calf serum (both Bioconcept, Switzerland) under standard mammalian cell culture conditions (37° C. in a humidified atmosphere of 5% CO2). Cells are detached from culture dishes using a dissociation buffer (0.02% EDTA in PBS, Gibco) for 1 min, and collected by centrifugation at 200 g at rt for 5 min in assay buffer (equal parts of Hank's BSS (HBSS, Bioconcept) and DMEM (low glucose, without phenol red, Gibco)). After incubation for 45 min (37° C. and 5% CO2) in the presence of 1 μM Fluo-4 and 0.04% Pluronic F-127 (both Molecular Probes), 20 mM HEPES (Gibco) in assay buffer, the cells are washed with and resuspended in assay buffer, then seeded onto 384-well FLIPR assay plates (Greiner) at 50,000 cells in 66 μl per well), and sedimented by centrifugation.
# Stock solutions of test compounds are made up at a concentration of 10 mM in DMSO, and serially diluted in assay buffer to concentrations required for inhibition dose response curves. Prostaglandin D2 (Biomol, Plymouth Meeting, Pa.) is used as an agonist.
# A FLIPR384 instrument (Molecular Devices) is operated according to the manufacturer's standard instructions, adding 4 μl of test compound dissolved at 10 mM in DMSO and diluted prior to the experiment in assay buffer to obtain the desired final concentration. 10 μl of 80 nM prostaglandin D2 (Biomol, Plymouth Meeting, Pa.) in assay buffer, supplemented with 0.8% bovine serum albumin (fatty acid content<0.02%, Sigma), is then added to obtain a final concentration of 10 nM and 0.1%, respectively. Changes in fluorescence are monitored before and after the addition of test compounds at λex=488 nm and λem=540 nm. Emission peak values above base level after prostaglandin D2 addition are exported after base line subtraction. Values are normalized to high-level control (no test compound added) after subtraction of base line value (no prostaglandin D2 added). The program XLlfit 3.0 (IDBS) is used to fit the data to a single site dose response curve of the equation (A+((B−A)/(1+((C/x)^D)))) and to calculate the IC50 values.
Structure (SMILES),IC50 [1] [nM],IC50 [2] [nM]
"N#C/C(=C\c1cn(CC(=O)O)c2ccccc12)C(=O)Nc1ccccc1Oc1ccc(Cl)cc1Cl [Example 49, (3-{(E)-2-cyano-2-[2-(2,4-dichloro-phenoxy)-phenylcarbamoyl]-vinyl}-indol-1-yl)-acetic acid]",35,146
"COc1ccc(Cl)cc1NC(=O)/C(C#N)=C/c1cn(CC(=O)O)c2ccccc12 [Example 64, {3-[(E)-2-(5-chloro-2-methoxy-phenylcarbamoyl)-2-cyano-vinyl]-indol-1-yl}-acetic acid]",40,61
"Cc1ccc2c(/C=C(\C#N)C(=O)N3Cc4ccccc4Cc4ccccc43)cn(CC(=O)O)c2c1 [Example 149, {3-[(E)-2-cyano-3-(6,11-dihydro-dibenzo[b,e]azepin-5-yl)-3-oxo-propenyl]-6-methyl-indol-1-yl}-acetic acid]",49,253
"Cc1ccc(NC(=O)/C(C#N)=C/c2cn(CC(=O)O)c3ccccc23)cc1Br [Example 70, {3-[(E)-2-(3-bromo-4-methyl-phenylcarbamoyl)-2-cyano-vinyl]-indol-1-yl}-acetic acid]",76,58
"N#C/C(=C\c1cn(CC(=O)O)c2ccccc12)C(=O)Nc1ccccc1Cc1ccccc1 [Example 29, {3-[(E)-2-(2-benzyl-phenylcarbamoyl)-2-cyano-vinyl]-indol-1-yl}-acetic acid]",42,151
"N#C/C(=C\c1cn(CC(=O)O)c2ccccc12)C(=O)N(Cc1ccccc1)c1ccccc1 [Example 12, {3-[(E)-2-(benzyl-phenyl-carbamoyl)-2-cyano-vinyl]-indol-1-yl}-acetic acid]",29,90
"CN(C(=O)/C(C#N)=C/c1cn(CC(=O)O)c2ccc(F)cc12)c1ccccc1C(F)(F)F [Example 141, (3-{(E)-2-cyano-2-[methyl-(2-trifluoromethyl-phenyl)-carbamoyl]-vinyl}-5-fluoro-indol-1-yl)-acetic acid]",17,47
"N#C/C(=C\c1cn(CC(=O)O)c2ccccc12)C(=O)Nc1cccc(C(=O)c2ccccc2)c1 [Example 54, {3-[(E)-2-(3-benzoyl-phenylcarbamoyl)-2-cyano-vinyl]-indol-1-yl}-acetic acid]",18,98

# Molecules with a lower IC50 [1], results first:
IC50 [1] [nM],IC50 [2] [nM],Structure (SMILES)
16,159,"N#C/C(=C\c1cn(CC(=O)O)c2ccccc12)C(=O)N(CC(=O)O)c1ccccc1 [Example 99, {3-[(E)-2-(carboxymethyl-phenyl-carbamoyl)-2-cyano-vinyl]-indol-1-yl}-acetic acid]"
15,182,"CN(C(=O)/C(C#N)=C/c1cn(CC(=O)O)c2ccccc12)c1cccc(Cl)c1 [Example 101, (3-{(E)-2-[(3-chloro-phenyl)-methyl-carbamoyl]-2-cyano-vinyl}-indol-1-yl)-acetic acid]"
12,57,"N#C/C(=C\c1cn(CC(=O)O)c2ccccc12)C(=O)N1c2ccccc2C=Cc2ccccc21 [Example 87, sodium [3-((E)-2-cyano-3-dibenzo[b,f]azepin-5-yl-3-oxo-propenyl)-indol-1-yl]-acetate]"
11,61,"CN(C(=O)/C(C#N)=C/c1cn(CC(=O)O)c2ccccc12)c1ccccc1 [Example 46, {3-[(E)-2-cyano-2-(methyl-phenyl-carbamoyl)-vinyl]-indol-1-yl}-acetic acid]"
10,181,"CC(=O)c1ccc(N(C)C(=O)/C(C#N)=C/c2cn(CC(=O)O)c3ccccc23)cc1 [Example 94, (3-{(E)-2-[(4-acetyl-phenyl)-methyl-carbamoyl]-2-cyano-vinyl}-indol-1-yl)-acetic acid]"
9,54,"N#C/C(=C\c1cn(CC(=O)O)c2ccccc12)C(=O)N1CCCc2ccccc21 [Example 47, {3-[(E)-2-cyano-3-(3,4-dihydro-2H-quinolin-1-yl)-3-oxo-propenyl]-indol-1-yl}-acetic acid]"
9,66,"N#C/C(=C\c1cn(CC(=O)O)c2ccccc12)C(=O)N1c2ccccc2Sc2ccc(Cl)cc21 [Example 113, {3-[(E)-3-(2-chloro-phenothiazin-10-yl)-2-cyano-3-oxo-propenyl]-indol-1-yl}-acetic acid]"
7,48,"COc1ccc(N(C)C(=O)/C(C#N)=C/c2cn(CC(=O)O)c3ccccc23)cc1 [Example 45, (3-{(E)-2-cyano-2-[(4-methoxy-phenyl)-methyl-carbamoyl]-vinyl}-indol-1-yl)-acetic acid]"
6,114,"N#C/C(=C\c1cn(CC(=O)O)c2ccccc12)C(=O)N1Cc2ccccc2Cc2ccccc21 [Example 89, {3-[(E)-2-cyano-3-(6,11-dihydro-dibenzo[b,e]azepin-5-yl)-3-oxo-propenyl]-indol-1-yl}-acetic acid]"
